Measured values published in ChEMBL document CHEMBL1128178, “Kynurenic acid derivatives inhibit the binding of nerve growth factor (NGF) to the low-affinity p75 NGF receptor” (J Med Chem, 1995).

Target: T1, Tumor necrosis factor receptor superfamily member 16 (Homo sapiens, UniProt P08138)
T1 sequence (P08138 whole entry): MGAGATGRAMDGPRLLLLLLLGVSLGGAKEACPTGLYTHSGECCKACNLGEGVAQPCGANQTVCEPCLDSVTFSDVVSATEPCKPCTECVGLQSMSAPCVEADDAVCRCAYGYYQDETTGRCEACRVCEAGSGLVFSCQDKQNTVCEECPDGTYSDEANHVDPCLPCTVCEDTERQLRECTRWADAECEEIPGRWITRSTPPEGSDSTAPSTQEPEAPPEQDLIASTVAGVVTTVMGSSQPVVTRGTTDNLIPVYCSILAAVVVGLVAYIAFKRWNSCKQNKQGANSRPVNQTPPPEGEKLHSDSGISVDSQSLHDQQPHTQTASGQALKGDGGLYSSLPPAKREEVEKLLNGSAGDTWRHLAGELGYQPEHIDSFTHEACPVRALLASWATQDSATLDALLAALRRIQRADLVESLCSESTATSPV
Test: Inhibition of [125I]- NGF binding to extracellular domain of p75 receptor; call rule not given here

Structure (SMILES) | IC50
COC(=O)c1c(C)sc2c(O)cc(C(=O)Nn3cnnn3)nc12 | 1300 nM
COC(=O)c1c(C)sc2c(O)cc(C(=O)O)nc12 | 2300 nM
Nc1ccc2nc(C(=O)O)cc(O)c2c1 | 3100 nM
Cn1c2ccc(NC(=O)c3ccccc3)cc2c(=O)n2nc(C(=O)O)cc12 | 200 nM

Target: T1, Tumor necrosis factor receptor superfamily member 16
Test: Inhibition of [125I]- NGF binding to extracellular domain of p75 receptor; IA=Inactive

Structure (SMILES) | IC50
O=C(O)c1cc(O)c2cc([N+](=O)[O-])ccc2n1 | Not Active
O=C(O)c1cc(=O)c2ccccc2[nH]1 [TRANSTORINE] | Not Active
NC(=O)c1ccc2nc(C(=O)O)cc(O)c2c1 | Not Active
Cn1c(C(=O)O)cc(=O)c2cc(N)ccc21 | Not Active
O=C(O)c1ccc2c(O)cc(C(=O)O)nc2c1 | Not Active
O=C(O)c1cc(O)c2c(C(=O)O)cccc2n1 | Not Active
Cc1ccc(C(=O)Nc2ccc3c(O)cc(C(=O)O)nc3c2)cc1 | Not Active
O=C(O)c1ccc2nc(C(=O)O)cc(O)c2c1 | Not Active
Cc1ccc(C(=O)Nc2ccc3nc(C(=O)O)cc(O)c3c2)cc1 | Not Active
O=C(O)c1cc(O)c2c(Cl)cc(Cl)cc2n1 | Not Active
Cc1ccc(C(=O)Nc2ccc3c(c2)c(=O)cc(C(=O)O)n3C)cc1 | Not Active

Target: T2, Tumor necrosis factor receptor superfamily member 16 (Homo sapiens) (UniProt P08138)
T2 sequence (whole entry): T1 sequence (P08138 whole entry)
Test: Percent inhibition of [125I]- NGF binding to extracellular domain of p75 receptor at 10 uM

Structure (SMILES) | inhibition
Nc1cccc2nc(C(=O)O)cc(O)c12 | 50%
COc1cc(C(=O)O)nc2ccc(NC(=O)c3ccc(C)cc3)cc12 | 29%
Cc1ccc(C(=O)Nc2cccc3nc(C(=O)O)cc(O)c23)cc1 | 38%
Nc1ccc2c(O)cc(C(=O)O)nc2c1 | 37%
COc1cc(C(=O)O)nc2ccc(N)cc12 | 28%
